Laboratory results: patent US10982196B2, “Immunotherapy targeting intracellular pathogens” (LIFE SCIENCES RESEARCH PARTNERS VZW, priority 2008, dated 2021)

Experiments:
[1] = test system: IDO (indolamine-2,3-dioxygenase); format: cell-based, BALB/c; conditions: dendritic cells pre-loaded with SEQ ID NO:5 or 7, 8 h co-culture with CD4+ T cells of mice immunised with SEQ ID NO:6 or 8; example written in present tense
dendritic cells [2] = assay: Reactive oxygen intermediates in antigen-presenting cells co-cultured with CD4+ T cells expanded with modified ESAT-6 epitope, Facs (DCFDA); format: cell-based, C57Bl/6 mice; conditions: dendritic cells loaded with SEQ ID NO:3, 2 h co-culture with CD4+ T cells expanded with SEQ ID NO:4; example written in present tense
[3] = test system: induced nitric oxide synthase; assay: Reactive nitrogen intermediates in antigen-presenting cells, RT-PCR for transcripts of nitric oxide synthase; format: cell-based, C57Bl/6 mice; conditions: dendritic cells co-cultured 6 h with CD4+ T cells and peptide of SEQ ID NO:4; example written in present tense
dendritic cells [4] = conditions: dendritic cells loaded with peptide of SEQ ID NO:1, 2 h co-culture with CD4+ T cell line expanded with the peptide; compared with line expanded with SEQ ID NO:1; FIG. 1
Experimental: Adenovirus of serotype 5 (Ad.RR5, E1/E3-deleted) was used in these experiments. Thus, 5 μL of a solution containing 2×10^11 viral particles/ml was administered by the intravenous route to 6 weeks old C57Bl/6 mice. Ten days later, the spleen of such mice was recovered and CD4+ T cells purified by magnetic sorting.
CD4+ T cells obtained from Ad.RR5-immunized mice were cultured in the presence of T lymphocyte-depleted spleen adherent cells used as antigen-presenting cells pre-incubated with either peptide of SEQ ID NO:1 or peptide of SEQ ID NO:2. After two cycles of restimulation, the CD4+ T cell lines were allowed to rest for 10 days. […] The generation of reactive oxygen intermediates (ROI) by dendritic cells was then evaluated after 2 h of co-culture. Dendritic cells were prepared from the spleen of C57Bl/6 mice by sorting on magnetic beads coated with an anti-CD11c specific antibody.
Thus, 10^5 dendritic cells were incubated for 1 h with 10 μM DCFDA, a derivative of fluorescein used as an indicator of ROI generation. […] Fluorescence increases generated by DCFDA oxidation by reactive oxygen intermediates are read in a Facs gated on CD11c(+) cells.

CGHCDKHIEQYLK (modified Th2R T-cell epitope; (1)..(4) thioreductase motif) [SEQ ID NO:6]
expression of IDO in dendritic cells [1]: induces a reverse signalling leading to expression of IDO

CGHCEKKICKMEK (modified T-cell epitope of CSP antigen Plasmodium falciparum; (1)..(4) modified T-cell epitope) [SEQ ID NO:8]
expression of IDO in dendritic cells [1]: induces a reverse signalling leading to expression of IDO

CGHCFAGIEAAAS (modified ESAT6 T-cell epitope; (1)..(4) thioreductase motif) [SEQ ID NO:4]
production of reactive oxygen intermediates in antigen-presenting cells (dendritic cells [2]): shown to be induced
production of reactive nitrogen intermediates in antigen-presenting cells [3]: shown to be induced

CHGCPTLLYVLFEV (modified T-cell epitope of capsid protein adenovirus serotype 5; (1)..(4) thioreductase motif) [SEQ ID NO:2]
ROI produced by dendritic cells (dendritic cells [4]): significantly more ROI
